The test system of data set [1] is A2780 human ovarian cancer cells. Nature of the data set: Clonogenic assay, A2780. Type of data set: cell-based. The note with it: 1 hour drug treatment, 1 week colony formation, read-out: IC50 A780. As to the method: (§1) Human ovarian cancer cells, A2780, were obtained from Dr. Thomas Hamilton (Fox Chase Cancer Center, Philadelphia, Pa.). Cells were cultured on monolayer using RPMI 1640 supplemented with 10% fetal bovine serum, 2 mM glutamine, 0.25 units/mL insulin and penicillin/streptomycin in a 37 degrees C. incubator continuously gassed with 5% CO2. Cells were subcultured using 0.0625% trypsin in HBSS to maintain cells in exponential growth.
(§2) IC50 values were determined using a clonogenic assay. Briefly, 500 A2780 cells from a single cell suspension were plated onto 60mm Petri plates 24 hours before drug treatment to permit cell attachment. On the day of drug treatment, the medium was decanted and replaced with the drug and these treated cells were placed back into the 37 degrees C. incubator for 1 hour. Triplicate plates were set up for each drug concentration. After the 1 hour drug treatment, the drug containing medium was decanted and replaced with fresh medium. These plates were returned to the 37 degrees C. incubator for 1 week for colony formation. Colonies were fixed and stained using 2% crystal violet in absolute methanol. Colonies containing more than 50 cells were scored. The number of scored colonies from the triplicate plates was averaged and this number was divided by the number of cells plated to obtain a value for the fraction of cells forming colonies. These values for fraction of cells forming colonies were then corrected for plating efficiency by dividing it by the number of cells forming colonies in plates that were not treated with drug.

For data set [2], the system named is A2780/C30 cisplatin-resistant ovarian cell line. Nature of the data set: Clonogenic assay, cisplatin/carboplatin-resistant C30. In kind it is cell-based, human. The note with it: 1 hour drug treatment, 1 week colony formation. As for the experimental part:
as §1, with “A cisplatin-resistant Ovarian cell line (C30) (Hamaguchi, et al., 1993),” for “Human ovarian cancer cells, A2780, were”, “Pa.), was treated with the monomeric platinum complexes of the present invention (shown in FIG. 2). This cell line is also cross resistant to carboplatin.” for “Pa.).”, “0.025%” for “0.0625%”
as §2, with “500 C30” for “500 A2780”, “onto 60 mm” for “onto 60mm”, “the one” for “the 1”, “dividing them” for “dividing it”

For the next data set, the system named is CHO cell line. The data set is described as follows: Cytotoxic assay, CHO. Type of data set: cell-based. The text has this:
In some embodiments, the complexes of the present invention are useful for treating various cancers. […] The complexes of the present invention are particularly desirable because they may have reduced toxicity in vivo.

The subject of a further data set is A2780 cells. Nature of the data set: Cellular accumulation of platinum by atomic absorption, A2780. Type of data set: cell-based, human. The settings on record: for Cellular accumulation of platinum: 1 hr exposure. As for the experimental part:
(§3) Platinum content was quantitatively estimated on a Graphite Furnace Atomic Absorption Spectrometer (Perkin Elmer AA-600) from calibration curves established by using cisplatin or pyrodach-2 in water. Cells (5×10^6) were seeded in T75 cm^2 flasks. After 24 h, these cells were then treated with the different concentrations (0, 10, 20, 30 and 50 μM) of cisplatin and pyrodach-2. After 1 hr exposure with the platinum complexes, the drug-containing medium was removed and the cells were washed with ice-cold phosphate-buffered saline (PBS). The cells were then trypsinized and centrifuged into a pellet. Cell pellets were digested in concentrated HNO3 and H2O2 prior to analysis, according to the method of McGahan. Data reported in Table 4 were collected from three independent experiments each was carried out in duplicate. For the cisplatin accumulation, data were obtained from triplicate runs from a single sample at a given concentration.

In data set [3] the test system is A2780/C30 cells. The data set is described as follows: Cellular accumulation of platinum by atomic absorption, A2780/C30. Type of data set: cell-based, human. The note with it: 1 hr exposure. As for the experimental part:
as §3

The subject of a further data set is guanine base. The data set is described as follows: Guanine base binding by proton NMR. The settings on record: cisplatin after 48 hours, am-2 96 hours, dach-2 106 hours. As to the method: FIG. 12 is a comparison of guanine base binding (the predominant DNA binding site of cisplatin) among cisplatin (bottom), am-2 (middle), and dach-2 (top) by proton NMR spectroscopy. […] The bottom spectrum was recorded after 48 hours. The middle and top spectra were recorded after 96 and 106 hours, respectively.
(§4) Proton NMR spectroscopic experiments were conducted on a Bruker 500 MHz NMR instrument in 99% (atom) D2O with a water suppression pulse sequence. Samples contained cisplatin (2.0 mM) or pyrodach-2 (2.0 mM) and nucleotides (5′-dGMP, 5′-dAMP, dGpG (5.0 mM)), and, single- and double stranded DNA (calf thymus, 5.0 mM) at pH 7.0 maintained by phosphate and carbonate buffers (10-20 mM). Reactions of cisplatin (0.25 mM) and pyrodach-2 (0.25 mM) with a synthetic 25-mer: 5′-[…]-3′ (SEQ ID NO: 1) (0.25 mM) were also performed under identical conditions. Reactions were carried out up to 7 days, and ^1H and ^31P NMR spectra were recorded at regular time intervals. Usually, a pulse width of 5 μs with a 1.0 s repetition delay was used for the measurements. Typically, a sweepwidth of 10,000 Hz and 32 K data points were selected to collect the Free Induction Decays. A line broadening factor of 1 Hz was for applied Fourier transformation. The chemical shifts, with reference to H—O-D peak, are at 4.67 ppm.

The test system of data set [4] is synthetic 25-mer oligonucleotide (SEQ ID NO:1). The data set is described as follows: Platinum-DNA binding by NMR, 25-mer oligonucleotide. The note with it: 1H NMR, identical conditions for both complexes. As to the method: (§5) In the associated experiment, dach-2 was allowed to react with double-stranded calf-thymus DNA, a synthetic oligonucleotide (5′-[…]-3′; SEQ ID NO:1), a dinucleotide (dGpG), and nucleotide monophosphates (5′-dGMP and 5′-dAMP) at concentrations as much as 250-times higher than those of cellular doses. The extent of DNA binding was monitored by ^1H NMR spectroscopy. In parallel, similar reactions with cisplatin were conducted under identical conditions.
as §4, with “The chemical shifts, with reference to H—O-D peak, are at 4.67 ppm.” left out

For data set [5], the system named is calf-thymus DNA, oligonucleotide, dGpG, 5'-dGMP and 5'-dAMP. Nature of the data set: Platinum binding to DNA and nucleotides by NMR. The note with it: 1H NMR, up to seven days. As to the method:
as §5
as §4, with “The chemical shifts, with reference to H—O-D peak, are at 4.67 ppm.” left out

For a further data set, the system named is fas. The data set is described as follows: Apoptotic gene array, real-time PCR: fas. In kind it is cell-based. The note with it: preliminary. As to the method:
(§6) Preliminary gene expression experiments involving complexes of the present invention as compared to cisplatin (data not shown) were carried out with an apoptotic array containing 84 genes that includes the BCL2 superfamily, both pro- and anti-apoptotic, caspases, the BIR-family, TNF receptor […] factors, p53 and its congeners, and fas associated members by real-time PCR. A closer look at the two sets of gene expressions clearly indicates a number of differences in the expression patterns. […] Specifically, fas was over-expressed by 6-fold compared to the control, and TNFRS genes such as TNFRSF-10B was overexpressed by 2-3 folds over controls. These latter receptor factors belong to the fas superfamily.
(Real-time PCR tracks product formation cycle by cycle.)

The next data set deals with BAK1. The data set is described as follows: Apoptotic gene array, real-time PCR: BAK1. Type of data set: cell-based. The note with it: preliminary. As for the experimental part:
as §6

Another data set concerns BAX. The data set is described as follows: Apoptotic gene array, real-time PCR: BAX. In kind it is cell-based. The settings on record: preliminary. As for the experimental part:
as §6

For data set [6], the system named is UMSCC10b (Cisplatin-sensitive) cells. The settings on record: from Zheng et al., Clinical Cancer Research 1997; cited from earlier work.
Data set [7] deals with A2780/C30 cells. The data set is described as follows: Cellular accumulation of platinum by atomic absorption, A2780/C30. In kind it is cell-based, human. The note with it: at its IC50 value.
The nature of data set [8]: pKa from 31P chemical shift as a function of pH. In kind it is physicochemical. The note with it: for pKa1 / pKa2: calculated from phosphorus-31 chemical shifts.

Each structure is given as a SMILES string. “Also recorded” adds a separate entry of the source. Where only a bound is given, the exact number is not on record here.

With `N.N.O=C([O-])C1(C(=O)[O-])CCC1.[Pt+2]` [Carboplatin, diammine-1,1-dicarcarboxylatocyclobutane-platinum(II), reference compound], the concentration for half-maximal inhibition (IC50) (in general, the concentration that gives 50% inhibition) in [1] is 90 ± 13 µM; in data set [2], more than 200 µM; with CHO cell line, more than 200 µM.
As to `N.N.[Cl][Pt][Cl]` [Cisplatin, cisdiamminedichloroplatinum(II), reference compound], the IC50 was 7.5 ± 1.5 µM in [1], 110 ± 11.3 µM in data set [2], 29 ± 3 µM in the data set on CHO cell line and 17 µM in data set [6]. The “Cellular accumulation of platinum” value worked out at 3.00 ± 0.05 ng/10^6 cells with A2780 cells (A2780, 10 μM); 5.00 ± 0.06 ng/10^6 cells in the data set with A2780 cells (A2780, 20 μM); 6.00 ± 0.10 ng/10^6 cells in the data set on A2780 cells (A2780, 30 μM); 20.00 ± 1.00 ng/10^6 cells with A2780 cells (A2780, 50 μM); 1.00 ± 0.10 ng/10^6 cells in the data set on A2780/C30 cells [3] (A2780/C30, 10 μM); 2.00 ± 0.40 ng/10^6 cells in the data set on A2780/C30 cells [3] (A2780/C30, 20 μM). Also, the “Cellular accumulation of platinum” value with A2780/C30 cells [3] (A2780/C30, 30 μM) is reported as 2.00 ± 0.50 ng/10^6 cells; in the data set on A2780/C30 cells [3] (A2780/C30, 50 μM), 5.00 ± 1.00 ng/10^6 cells. Moreover, the “accumulation in A2780 cells” value in the data set on A2780 cells (at 10 μM concentration) worked out at 3.0 ng Pt/10^6 cells. Also, the “guanine base binding (H8 signal)” value in the data set with guanine base was “additional signal at 8.43 ppm for H8 proton due to guanine binding to cisplatin”. In addition, in data set [4], the “DNA binding, 25-mer oligonucleotide” value was “readily forms covalent adducts with DNA”. For the same compound, the “adduct formation with nucleotides” value in data set [5] is recorded as “readily formed adducts with all the nucleotides”. Moreover, the “fas over-expression compared to the control” value in the data set on fas is reported as “no significant over-expression; also recorded: marginal changes”. In addition, in the data set with BAK1, the BAK1 overexpression entry is recorded as “did not make significant changes”. Further, the BAX overexpression result with BAX was “did not make significant changes”. The “platinum accumulation in the resistant cell lines” value in the data set with A2780/C30 cells [7] is recorded as more than 5 ng Pt/10^6 cells.
On to `N.N.O=P1(O)[O][Pt][O]P(=O)(O)O1` [am-2, Diammine(dihydrogen pyrophosphato)platinum(II)], for which the pKa1 in [8] is 2.9 ± 0.3. Besides, the pKa2 in data set [8] was 4.7 ± 0.2. Further, the “pKa1 (value in parentheses)” value in data set [8] (second value printed in parentheses under pKa1, not explained) is listed as “(3.8 ± 0.1)”. Moreover, the concentration for half-maximal inhibition (IC50) in data set [1] was 100 ± 11 µM; in data set [2], more than 200 µM; in the data set with CHO cell line, 120 ± 30 µM. Moreover, the “guanine base binding (H8 signal)” value with guanine base is recorded as “only indicates the unbound guanine H8 signal but not platinum bound signal”.
On to `N.N.O=P1(O)OP(=O)(O)[O][Pt]([OH])([OH])[O]1` [am-4, Cis-diammine-trans-dihydroxo(dihydrogen pyrophosphato)platinum (IV)], for which the pKa1 in data set [8] is recorded as 2.0 ± 0.1. Also, the pKa2 in data set [8] was 4.7 ± 0.1. The 50% inhibitory concentration (IC50) in data set [1] is 175 ± 22 µM; in data set [2], more than 200 µM; in the data set on CHO cell line, more than 200 µM.
Regarding `NC1CCCCC1N.O=P([O-])(O)OP(=O)([O-])O.[OH-].[OH-].[Pt+4]` [dach-4, (Trans-1,2-cyclohexanediamine)-trans-dihyroxo(dihydrogenpyrophosphato)platinum(IV)], the values for the IC50 (in data set [1]; in [2]; with CHO cell line) were 180 ± 15 µM, 155 ± 17 µM and 116 ± 17 µM, respectively.
Regarding `NCCN.O=P([O-])(O)OP(=O)([O-])O.[Pt+2]` [en-2, 1,2-Ethanediamine(dihydrogenpyrophosphato)platinum(II)], in [8], the pKa1 is given as 2.2 ± 0.1 and the pKa2 is 4.4 ± 0.1.
Turning to `NCCN.O=P([O-])(O)OP(=O)([O-])O.[OH-].[OH-].[Pt+4]` [en-4, 1,2-Ethanediamine-trans-dihydroxo(dihydrogenpyrophosphato)platinum(IV)], the pKa1 in data set [8] is given as less than 2. Further, in [8], the pKa2 is 4.3 ± 0.1. The values for the half-maximal inhibitory concentration (IC50) (in data set [1]; in data set [2]; in the data set on CHO cell line) were 170 ± 33 µM, more than 200 µM and more than 200 µM, respectively.

These data come from US8653132B2, “Phosphaplatins and their use in pharmaceutical compositions” (Ohio University, priority 2007, dated 2014).
